Experimental data: patent US20020128320A1, “Method of administering calcium citrate” (UniServices Ltd., priority 2001, published 2002)
“Also recorded” adds a separate entry of the source. Where two headings read alike, the source gives them in different places.

Legend:
[1] = 193 subjects; cited from earlier work
[2] = 6 weeks; 56 subjects; cited from earlier work
[3] = Randomized placebo-controlled trial of calcium citrate: body weight; assay type: in vivo, normal postmenopausal women
Method: A randomized controlled trial of calcium supplementation in 223 normal postmenopausal women aged 55 years or older. Women receiving therapy for osteoporosis were ineligible, as were those with any other major ongoing disease, including serum creatine greater than 0.2 mmol/L, untreated hypo- or hyperthyroidism, liver disease, serum 25-hydroxyvitamin D less than 10 μg/L, malignancy or metabolic bone disease. None of the subjects had been regular users of hormone replacement therapy, anabolic steroids, glucocorticoids or bisphosphonates in the previous 1 year. Lumbar spine bone density (Lunar Expert, Madison, Wis.) was not below the age-appropriate normal range. […]
266 subjects were assessed for eligibility for the sub-study, and 223 entered the study, of which 111 women were randomized to calcium and 112 to placebo. […]
Treatments were allocated randomly using a minimization algorithm balancing for current thiazide use, age and the occurrence of fractures resulting from minimal trauma after the age of 40 years. […] Calcium intake and physical activity were assessed using validated questionnaires (Angus et al., 1989; Wilson et al., 1986). Compliance was assessed by tablet counts.
Data were analyzed on an intention-to-treat basis, using a fixed effects mixed models approach to repeated measures using the MIXED procedure of SAS (SAS Institute, Cary, N.C.). […]

[4] = Randomized placebo-controlled trial of calcium citrate: fasting serum lipids; assay type: in vivo, normal postmenopausal women
Method: A randomized controlled trial of calcium supplementation in 223 normal postmenopausal women aged 55 years or older. Women receiving therapy for osteoporosis were ineligible, as were those with any other major ongoing disease, including serum creatine greater than 0.2 mmol/L, untreated hypo- or hyperthyroidism, liver disease, serum 25-hydroxyvitamin D less than 10 μg/L, malignancy or metabolic bone disease. None of the subjects had been regular users of hormone replacement therapy, anabolic steroids, glucocorticoids or bisphosphonates in the previous 1 year. Lumbar spine bone density (Lunar Expert, Madison, Wis.) was not below the age-appropriate normal range. In the present sub-study there was the further requirement that subjects were not receiving therapy for hyperlipidemia.
266 subjects were assessed for eligibility for the sub-study, and 223 entered the study, of which 111 women were randomized to calcium and 112 to placebo. 20 women in the calcium group discontinued study medication as did 26 in the placebo group. […] The study was approved by the local ethics committee, and each subject gave written, informed consent. There were not significant differences between groups.
Treatments were allocated randomly using a minimization algorithm balancing for current thiazide use, age and the occurrence of fractures resulting from minimal trauma after the age of 40 years. Subjects received 1 gram of elemental calcium daily as the citrate (Citracal, Mission Pharmacal, San Antonio Tex.) or identical placebo. They were asked to take two tablets (each containing 200 mg elemental calcium) before breakfast and three tablets in the evening. Calcium intake and physical activity were assessed using validated questionnaires (Angus et al., 1989; Wilson et al., 1986). Compliance was assessed by tablet counts.
Fasting total cholesterol, high-density lipoprotein cholesterol and triglycerides were measured in serum at baseline, 2 months, 6 months, and one year, using a Roche-Hitachi 747 autoanalyzer (Mannherim, Germany). The cholesterol assay used cholesterol oxidase, high-density lipoprotein measurement was by a direct non-precipitation method using PEG-modified enzymes (cholesterol oxidase), and triglycerides were assayed using a glycerol kinase/oxidase method after initial hydrolysis using lipoprotein lipase. Low-density lipoprotein was calculated using the Friedewald formula:
LDL=TC−HDL−(0.45×triglyceride)
Data were analyzed on an intention-to-treat basis, using a fixed effects mixed models approach to repeated measures using the MIXED procedure of SAS (SAS Institute, Cary, N.C.). Significant main and interaction effects were explained using the method of Tukey. In complimentary analyses, the change from baseline for each continuous normal dependant variable was compared between treatment and placebo arms using Student's t-test for independent groups. A 5% significance level was maintained throughout these analyses.

[5] = 13 men, cited from earlier work
[6] = intention-to-treat analysis, 12 months, 1 g elemental calcium daily

## O=C([O-])[O-].[Ca+2] [calcium carbonate]
[1]
  changes in total cholesterol, high-density lipoprotein level, and blood pressure: statistically insignificant changes
[2]
  change in total cholesterol: statistically insignificant decrease

## O=C([O-])CC(O)(CC(=O)[O-])C(=O)[O-].O=C([O-])CC(O)(CC(=O)[O-])C(=O)[O-].[Ca+2].[Ca+2].[Ca+2] [calcium citrate]
[3]; intention-to-treat analysis, 1 g elemental calcium daily
  body weight decrease (mean ±SE): 289 ± 193 g
[3]; versus placebo (P=0.54)
  between-groups effect on body weight: no between-groups effect on body weight
[4]; daily dose about 1 gram elemental calcium
  high-density lipoprotein/low-density lipoprotein ratio increase (summary statement): ~20%
[4]; extrapolated from lipid effects by comparison with statin trial data
  predicted reduction of cardiovascular event rates: 20-30%
[4]; [6]
  high-density lipoprotein/low-density lipoprotein ratio increase: 17.7%
  total cholesterol fall (non-significant): 3.7%
[4]; intention-to-treat analysis, 12 months, 1 g elemental calcium daily, oral
  high-density lipoprotein increase above baseline: 7.3%
[4]; intention-to-treat analysis, 12 months, 1 g elemental calcium daily, LDL calculated by Friedewald formula
  low-density lipoprotein decline: 7.8%
[4]; intention-to-treat analysis, one year, 1 g elemental calcium daily
  ratio of total cholesterol/high-density lipoprotein decline: 9.3%
[4]; intention-to-treat analysis, versus placebo (P=0.48)
  treatment effect on triglycerides: no significant treatment effect
[4]; protocol analysis excluding statin/fibrate users, FIG. 1A, P=0.05
  change in high-density lipoprotein cholesterol versus placebo: increase in high-density lipoprotein; also recorded: significant treatment effects
[4]; protocol analysis excluding statin/fibrate users, FIG. 1B, P=0.04
  change in low-density lipoprotein cholesterol versus placebo: declined; also recorded: significant treatment effects
[4]; protocol analysis excluding statin/fibrate users, FIG. 2A
  change in total cholesterol: did not change significantly
[4]; protocol analysis excluding statin/fibrate users, FIG. 3
  treatment effect on triglycerides: no significant treatment effect
[4]; protocol analysis excluding subjects who commenced a statin or fibrate
  total cholesterol/high-density lipoprotein ratio decrease: 9.6%
[4]; protocol analysis excluding subjects who commenced a statin or fibrate, FIG. 2B
  high-density lipoprotein/low-density lipoprotein ratio increase: 17%

## calcium citrate malate
[5]; food and tablets
  increase in saturated fat excretion: 7%
  low-density lipoprotein levels decrease: 11%
  reduction in plasma cholesterol: 6%
[5]; increased in some subjects and decreased in others
  high-density lipoprotein levels change: insignificant
